Laboratory results: patent US20220119354A1, “DIAMINO-SUBSTITUTED PYRIDINES AND PYRIMIDINES AS HERBICIDES” (FMC Corporation, priority 2019, published 2022)

Key:
Format in all cases: in vivo
corn (Zea mays) = assay: Test A postemergence, corn; conditions: 0 to 100 scale
Summary of the method: (§1)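 Greenhouse pot test, loam/sand soil. Pre: directed soil spray at planting; post: foliar spray at 1–2 leaf stage (2–10 cm). Chemical in non-phytotoxic solvent + surfactant. Visual rating ~10 d, 0 = no effect, 100 = complete control.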

[1] = tested on: wheat (Triticum aestivum); assay: Test A postemergence, wheat; conditions: 0 to 100 scale
Summary of the method: as §1

[2] = tested on: foxtail, giant (Setaria faberii); assay: Test A preemergence, giant foxtail; conditions: 0 to 100 scale
Summary of the method: as §1

[3] = tested on: galium (catchweed bedstraw, Galium aparine); assay: Test A postemergence, galium; conditions: 0 to 100 scale
Summary of the method: as §1

[4] = tested on: pigweed (Amaranthus retroflexus); assay: Test A preemergence, pigweed; conditions: 0 to 100 scale
Summary of the method: as §1

[5] = tested on: barnyardgrass (Echinochloa crus-galli); assay: Test A postemergence, barnyardgrass; conditions: 0 to 100 scale
Summary of the method: as §1

[6] = tested on: sedge, umbrella (small-flower umbrella sedge, Cyperus difformis); assay: Test B flooded paddy test, umbrella sedge; conditions: Flood, 250 g ai/ha, applied to paddy water, 2-leaf stage, visual evaluation after 13 to 15 d
Summary of the method: (§2)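 Pots flooded to 3 cm above the soil when treated, with test compound added straight to the water and the flood maintained. Treated plants were at the 2-leaf stage and stayed 13–15 d in greenhouse. Response versus untreated controls scored visually from 0 (no effect) to 100 (complete control).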

[7] = tested on: barnyardgrass (Echinochloa crus-galli); assay: Test B flooded paddy test, barnyardgrass; conditions: Flood, 250 g ai/ha, applied to paddy water, 2-leaf stage, visual evaluation after 13 to 15 d
Summary of the method: as §2

[8] = tested on: ragweed (common ragweed, Ambrosia elatior); assay: Test A preemergence, ragweed; conditions: 0 to 100 scale
Summary of the method: as §1

[9] = tested on: foxtail, giant (Setaria faberii); assay: Test A postemergence, giant foxtail; conditions: 0 to 100 scale
Summary of the method: as §1

[10] = tested on: ryegrass, Italian (Lolium multiflorum); assay: Test A preemergence, Italian ryegrass; conditions: 0 to 100 scale
Summary of the method: as §1

[11] = tested on: barnyardgrass (Echinochloa crus-galli); assay: Test A preemergence, barnyardgrass; conditions: 0 to 100 scale
Summary of the method: as §1

rice (Oryza sativa) = assay: Test B flooded paddy test, rice; conditions: Flood, 250 g ai/ha, applied to paddy water, 2-leaf stage, visual evaluation after 13 to 15 d
Summary of the method: as §2

[12] = tested on: ducksalad (Heteranthera limosa); assay: Test B flooded paddy test, ducksalad; conditions: Flood, 250 g ai/ha, applied to paddy water, 2-leaf stage, visual evaluation after 13 to 15 d
Summary of the method: as §2

kochia (Kochia scoparia) [13] = assay: Test A preemergence, kochia; conditions: 0 to 100 scale
Summary of the method: as §1

[14] = tested on: ryegrass, Italian (Lolium multiflorum); assay: Test A postemergence, Italian ryegrass; conditions: 0 to 100 scale
Summary of the method: as §1

[15] = tested on: blackgrass (Alopecurus myosuroides); assay: Test A postemergence, blackgrass; conditions: 0 to 100 scale
Summary of the method: as §1

kochia (Kochia scoparia) [16] = assay: Test A postemergence, kochia; conditions: 0 to 100 scale
Summary of the method: as §1

[17] = tested on: pigweed (Amaranthus retroflexus); assay: Test A postemergence, pigweed; conditions: 0 to 100 scale
Summary of the method: as §1

[18] = tested on: ragweed (common ragweed, Ambrosia elatior); assay: Test A postemergence, ragweed; conditions: 0 to 100 scale
Summary of the method: as §1

Structure (SMILES)	Plant response rating, Corn (corn (Zea mays); 125 g ai/ha)	Plant response rating, Corn (corn (Zea mays); 500 g ai/ha)	Plant response rating, Wheat ([1]; 125 g ai/ha)	Plant response rating, Wheat ([1]; 500 g ai/ha)	Plant response rating, Foxtail, Giant ([2]; 125 g ai/ha)	Plant response rating, Foxtail, Giant ([2]; 500 g ai/ha)	Plant response rating, Galium ([3]; 125 g ai/ha)	Plant response rating, Galium ([3]; 500 g ai/ha)	Plant response rating, Pigweed ([4]; 125 g ai/ha)	Plant response rating, Pigweed ([4]; 500 g ai/ha)	Plant response rating, Barnyardgrass ([5]; 125 g ai/ha)	Plant response rating, Barnyardgrass ([5]; 500 g ai/ha)	Plant response rating, Sedge, Umbrella (0 to 100 scale, 0 is no effect, 100 is complete control) [6]	Plant response rating, Barnyardgrass (0 to 100 scale, 0 is no effect, 100 is complete control) [7]	Plant response rating, Ragweed ([8]; 125 g ai/ha)	Plant response rating, Ragweed ([8]; 500 g ai/ha)	Plant response rating, Foxtail, Giant ([9]; 125 g ai/ha)	Plant response rating, Foxtail, Giant ([9]; 500 g ai/ha)	Plant response rating, Ryegrass, Italian ([10]; 125 g ai/ha)	Plant response rating, Ryegrass, Italian ([10]; 500 g ai/ha)	other results
Cc1ccc2cc([C@@H](C)Nc3ncc(C(F)(F)F)c(N)n3)oc2c1 [Compound 14]	10	10	0	0	90	100	80	80	90	100	10	40	0	0	100	100	10	90	0	60	Plant response rating, Barnyardgrass ([11]; 125 g ai/ha): 90; Plant response rating, Barnyardgrass ([11]; 500 g ai/ha): 100; Plant response rating, Rice (0 to 100 scale, 0 is no effect, 100 is complete control) (rice (Oryza sativa)): 0; Plant response rating, Ducksalad (0 to 100 scale, 0 is no effect, 100 is complete control) [12]: 0; Plant response rating, Kochia (kochia (Kochia scoparia) [13]; 125 g ai/ha): 60; Plant response rating, Kochia (kochia (Kochia scoparia) [13]; 500 g ai/ha): 90; Plant response rating, Ryegrass, Italian ([14]; 125 g ai/ha): 0; Plant response rating, Ryegrass, Italian ([14]; 500 g ai/ha): 0; Plant response rating, Blackgrass ([15]; 125 g ai/ha): 30; Plant response rating, Blackgrass ([15]; 500 g ai/ha): 30; Plant response rating, Kochia (kochia (Kochia scoparia) [16]; 125 g ai/ha): 90; Plant response rating, Kochia (kochia (Kochia scoparia) [16]; 500 g ai/ha): 90; Plant response rating, Pigweed ([17]; 125 g ai/ha): 90; Plant response rating, Pigweed ([17]; 500 g ai/ha): 90; Plant response rating, Ragweed ([18]; 125 g ai/ha): 0; Plant response rating, Ragweed ([18]; 500 g ai/ha): 70
C[C@@H](Nc1ncc(C(F)(F)F)c(N)n1)c1cc2ccc(C(F)(F)F)cc2o1 [Compound 15]	0	20	0	0	20	90	60	80	80	100	30	30	0	0	30	90	30	80	0	70	Plant response rating, Barnyardgrass ([11]; 125 g ai/ha): 20; Plant response rating, Barnyardgrass ([11]; 500 g ai/ha): 70; Plant response rating, Rice (0 to 100 scale, 0 is no effect, 100 is complete control) (rice (Oryza sativa)): 0; Plant response rating, Ducksalad (0 to 100 scale, 0 is no effect, 100 is complete control) [12]: 0; Plant response rating, Kochia (kochia (Kochia scoparia) [13]; 125 g ai/ha): 40; Plant response rating, Kochia (kochia (Kochia scoparia) [13]; 500 g ai/ha): 50; Plant response rating, Ryegrass, Italian ([14]; 125 g ai/ha): 0; Plant response rating, Ryegrass, Italian ([14]; 500 g ai/ha): 30; Plant response rating, Blackgrass ([15]; 125 g ai/ha): 0; Plant response rating, Blackgrass ([15]; 500 g ai/ha): 30; Plant response rating, Kochia (kochia (Kochia scoparia) [16]; 125 g ai/ha): 40; Plant response rating, Kochia (kochia (Kochia scoparia) [16]; 500 g ai/ha): 80; Plant response rating, Pigweed ([17]; 125 g ai/ha): 90; Plant response rating, Pigweed ([17]; 500 g ai/ha): 90; Plant response rating, Ragweed ([18]; 125 g ai/ha): 20; Plant response rating, Ragweed ([18]; 500 g ai/ha): 40
